PubChem BioAssay (NCI)
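Cells were grown in 96-well plates and exposed to each compound for 48 hours at five concentrations; endpoints were interpolated linearly between bracketing concentrations, or set to the highest concentration if not reached. Definition used: TGI = concentration required for complete inhibition of growth.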

Assays:
Test in all cases: NCI anticancer screen, dose series, 48 h
786-0 renal = test system: 786-0 renal
A549 NSCLC = test system: A549 NSCLC
ACHN renal = test system: ACHN renal
BT-549 breast = test system: BT-549 breast
CAKI-1 renal = test system: CAKI-1 renal
CCRF-CEM leukemia = test system: CCRF-CEM leukemia
COLO 205 colon = test system: COLO 205 colon
DU-145 prostate = test system: DU-145 prostate
EKVX NSCLC = test system: EKVX NSCLC
HCC-2998 colon = test system: HCC-2998 colon
HCT-116 colon = test system: HCT-116 colon
HCT-15 colon = test system: HCT-15 colon
HL-60(TB) leukemia = test system: HL-60(TB) leukemia
HOP-92 NSCLC = test system: HOP-92 NSCLC
HS 578T breast = test system: HS 578T breast
HT29 colon = test system: HT29 colon
IGROV1 ovarian = test system: IGROV1 ovarian
K-562 leukemia = test system: K-562 leukemia
KM12 colon = test system: KM12 colon
LOX IMVI melanoma = test system: LOX IMVI melanoma
M14 melanoma = test system: M14 melanoma
MCF7 breast = test system: MCF7 breast
MDA-MB-231 breast = test system: MDA-MB-231 breast
MDA-MB-435 = test system: MDA-MB-435
MDA-N = test system: MDA-N
MOLT-4 leukemia = test system: MOLT-4 leukemia
NCI-H226 lung = test system: NCI-H226 lung
NCI-H23 lung = test system: NCI-H23 lung
NCI-H460 lung = test system: NCI-H460 lung
NCI-H522 lung = test system: NCI-H522 lung
NCI/ADR-RES ovarian = test system: NCI/ADR-RES ovarian
OVCAR-3 ovarian = test system: OVCAR-3 ovarian
OVCAR-4 ovarian = test system: OVCAR-4 ovarian
OVCAR-5 ovarian = test system: OVCAR-5 ovarian
OVCAR-8 ovarian = test system: OVCAR-8 ovarian
PC-3 prostate = test system: PC-3 prostate
RPMI-8226 leukemia = test system: RPMI-8226 leukemia
SF-268 CNS = test system: SF-268 CNS
SF-295 CNS = test system: SF-295 CNS
SF-539 CNS = test system: SF-539 CNS
SK-MEL-2 melanoma = test system: SK-MEL-2 melanoma
SK-MEL-28 melanoma = test system: SK-MEL-28 melanoma
SK-MEL-5 melanoma = test system: SK-MEL-5 melanoma
SK-OV-3 ovarian = test system: SK-OV-3 ovarian
SN12C renal = test system: SN12C renal
SNB-19 CNS = test system: SNB-19 CNS
SR leukemia = test system: SR leukemia
SW-620 colon = test system: SW-620 colon
T-47D breast = test system: T-47D breast
TK-10 renal = test system: TK-10 renal
U251 CNS = test system: U251 CNS
UACC-257 melanoma = test system: UACC-257 melanoma
UACC-62 melanoma = test system: UACC-62 melanoma
UO-31 renal = test system: UO-31 renal
A498 renal = test system: A498 renal
HOP-62 NSCLC = test system: HOP-62 NSCLC
MALME-3M melanoma = test system: MALME-3M melanoma

Cc1ccc(C(=O)N/N=C(\N=Nc2ccccc2Cl)c2ccc(N(C)C)cc2)cc1
TGI (786-0 renal): > 100 µM
TGI (A549 NSCLC): > 100 µM
TGI (ACHN renal): 46.1 µM
TGI (BT-549 breast): 97.1 µM
TGI (CAKI-1 renal): 75.4 µM
TGI (CCRF-CEM leukemia): > 100 µM
TGI (COLO 205 colon): > 100 µM
TGI (DU-145 prostate): 70.6 µM
TGI (EKVX NSCLC): > 100 µM
TGI (HCC-2998 colon): > 100 µM
TGI (HCT-116 colon): > 100 µM
TGI (HCT-15 colon): > 100 µM
TGI (HL-60(TB) leukemia): > 100 µM
TGI (HOP-92 NSCLC): > 100 µM
TGI (HS 578T breast): > 100 µM
TGI (HT29 colon): > 100 µM
TGI (IGROV1 ovarian): > 100 µM
TGI (K-562 leukemia): > 100 µM
TGI (KM12 colon): > 100 µM
TGI (LOX IMVI melanoma): > 100 µM
TGI (M14 melanoma): > 100 µM
TGI (MCF7 breast): > 100 µM
TGI (MDA-MB-231 breast): > 100 µM
TGI (MDA-MB-435): 29.6 µM
TGI (MDA-N): 34.5 µM
TGI (MOLT-4 leukemia): > 100 µM
TGI (NCI-H226 lung): > 100 µM
TGI (NCI-H23 lung): > 100 µM
TGI (NCI-H460 lung): > 100 µM
TGI (NCI-H522 lung): > 100 µM
TGI (NCI/ADR-RES ovarian): > 100 µM
TGI (OVCAR-3 ovarian): > 100 µM
TGI (OVCAR-4 ovarian): 78.4 µM
TGI (OVCAR-5 ovarian): > 100 µM
TGI (OVCAR-8 ovarian): > 100 µM
TGI (PC-3 prostate): > 100 µM
TGI (RPMI-8226 leukemia): > 100 µM
TGI (SF-268 CNS): > 100 µM
TGI (SF-295 CNS): > 100 µM
TGI (SF-539 CNS): > 100 µM
TGI (SK-MEL-2 melanoma): > 100 µM
TGI (SK-MEL-28 melanoma): > 100 µM
TGI (SK-MEL-5 melanoma): > 100 µM
TGI (SK-OV-3 ovarian): > 100 µM
TGI (SN12C renal): > 100 µM
TGI (SNB-19 CNS): 84.5 µM
TGI (SR leukemia): 68.7 µM
TGI (SW-620 colon): > 100 µM
TGI (T-47D breast): 24.5 µM
TGI (TK-10 renal): > 100 µM
TGI (U251 CNS): > 100 µM
TGI (UACC-257 melanoma): > 100 µM
TGI (UACC-62 melanoma): 17.8 µM
TGI (UO-31 renal): > 100 µM

CC(=O)Oc1ccc2cc(-c3ccc(OC(C)=O)c(OC(C)=O)c3)c(=O)oc2c1
TGI (786-0 renal): > 100 µM
TGI (A498 renal): > 100 µM
TGI (A549 NSCLC): > 100 µM
TGI (ACHN renal): > 100 µM
TGI (BT-549 breast): > 100 µM
TGI (CCRF-CEM leukemia): > 100 µM
TGI (COLO 205 colon): > 100 µM
TGI (DU-145 prostate): > 100 µM
TGI (EKVX NSCLC): > 100 µM
TGI (HCC-2998 colon): > 100 µM
TGI (HCT-116 colon): > 100 µM
TGI (HCT-15 colon): > 100 µM
TGI (HL-60(TB) leukemia): > 100 µM
TGI (HOP-62 NSCLC): > 100 µM
TGI (HOP-92 NSCLC): 95.2 µM
TGI (HS 578T breast): > 100 µM
TGI (HT29 colon): > 100 µM
TGI (K-562 leukemia): > 100 µM
TGI (KM12 colon): 61.3 µM
TGI (LOX IMVI melanoma): > 100 µM
TGI (M14 melanoma): > 100 µM
TGI (MALME-3M melanoma): > 100 µM
TGI (MCF7 breast): > 100 µM
TGI (MDA-MB-231 breast): > 100 µM
TGI (MDA-MB-435): > 100 µM
TGI (MDA-N): > 100 µM
TGI (MOLT-4 leukemia): > 100 µM
TGI (NCI-H226 lung): > 100 µM
TGI (NCI-H23 lung): > 100 µM
TGI (NCI-H460 lung): > 100 µM
TGI (NCI-H522 lung): > 100 µM
TGI (NCI/ADR-RES ovarian): > 100 µM
TGI (OVCAR-3 ovarian): > 100 µM
TGI (OVCAR-4 ovarian): > 100 µM
TGI (OVCAR-5 ovarian): > 100 µM
TGI (OVCAR-8 ovarian): > 100 µM
TGI (PC-3 prostate): > 100 µM
TGI (RPMI-8226 leukemia): > 100 µM
TGI (SF-268 CNS): > 100 µM
TGI (SF-295 CNS): > 100 µM
TGI (SF-539 CNS): > 100 µM
TGI (SK-MEL-2 melanoma): > 100 µM
TGI (SK-MEL-28 melanoma): > 100 µM
TGI (SN12C renal): > 100 µM
TGI (SNB-19 CNS): > 100 µM
TGI (SR leukemia): > 100 µM
TGI (SW-620 colon): > 100 µM
TGI (T-47D breast): 62.1 µM
TGI (TK-10 renal): > 100 µM
TGI (U251 CNS): > 100 µM
TGI (UACC-257 melanoma): > 100 µM
TGI (UO-31 renal): > 100 µM
